According to patent publication US6727264B1 (Synaptic Pharmaceutical Corporation, priority 2001, dated 2004):

Biological target: rat MCH-1 (Rattus norvegicus, UniProt P97639)
Experiment: Radioligand binding assay at cloned rat MCH1 receptor ([3H] Compound A)
Set-up: host or cells: Peak rapid 293 (Peakr293) cells, transient calcium phosphate transfection, membranes
Details: cloned rat MCH1 receptor, membranes from Peakr293 cells, 0.08 nM [3H] Compound A; read-out: Ki (nM) rMCH1

rat MCH-1, sequence (P97639 whole entry): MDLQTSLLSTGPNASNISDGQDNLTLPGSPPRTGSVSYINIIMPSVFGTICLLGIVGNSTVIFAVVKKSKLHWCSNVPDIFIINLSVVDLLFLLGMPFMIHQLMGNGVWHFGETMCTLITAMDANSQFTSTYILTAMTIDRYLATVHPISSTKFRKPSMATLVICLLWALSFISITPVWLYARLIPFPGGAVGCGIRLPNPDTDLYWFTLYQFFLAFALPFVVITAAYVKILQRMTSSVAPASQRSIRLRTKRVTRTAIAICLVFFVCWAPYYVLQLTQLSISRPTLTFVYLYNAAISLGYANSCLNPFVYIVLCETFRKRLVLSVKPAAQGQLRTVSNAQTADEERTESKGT

Structure (SMILES) | Ki
CC(C)C(=O)Nc1cccc(C2CCN(CCCCCCn3ccc4ccccc43)CC2)c1 [Example 96] | 15.9 nM
CC(C)C(=O)Nc1cccc(C2CCN(CCCCCn3ccc4ccccc43)CC2)c1 [Example 97] | 27.3 nM
Cc1cccc(-n2ccc3cc(CN4CCC(c5cccc(NC(=O)C(C)C)c5)CC4)ccc32)c1 [Example 103] | 21.3 nM
CC(C)C(=O)Nc1cccc(C2CCN(CCCNS(=O)(=O)c3ccc(Cl)c([N+](=O)[O-])c3)CC2)c1 [Example 104] | 11.2 nM
CC(C)C(=O)Nc1cccc(C2CCN(CCNC(=O)C(c3ccccc3)c3ccccc3)CC2)c1 [Example 107] | 1.7 nM
Cc1cc(CN2CCC(c3cccc(NC(=O)C(C)C)c3)CC2)c(C)n1-c1cccc(C(F)(F)F)c1 [Example 109] | 20.9 nM
CC(C)C(=O)Nc1cccc(C2CCN(Cc3ccc(Oc4ccc(Cl)c(Cl)c4)cc3)CC2)c1 [Example 112] | 6.1 nM
CC(C)C(=O)Nc1cccc(C2CCN(Cc3ccc(N(c4ccccc4)c4ccccc4)cc3)CC2)c1 [Example 114] | 3.6 nM
CC(C)C(=O)Nc1cccc(C2CCN(CCC(=O)c3ccc(Br)cc3)CC2)c1 [Example 117] | 19 nM
COc1ccc(C(=O)CCN2CCC(c3cccc(NC(=O)C(C)C)c3)CC2)cc1 [Example 119] | 75.7 nM
CC(C)C(=O)Nc1cccc(C2CCN(CCC(=O)c3ccc4c(c3)CCC4)CC2)c1 [Example 120] | 31.1 nM
CC(C)C(=O)Nc1cccc(C2CCN(CCC(=O)c3ccccc3)CC2)c1 [Example 121] | 184 nM
Cc1ccc(C(=O)CCN2CCC(c3cccc(NC(=O)C(C)C)c3)CC2)cc1 [Example 122] | 85.1 nM
CC(C)C(=O)Nc1cccc(C2CCN(CCC(O)c3ccc(F)cc3)CC2)c1 (stereo not shown) [Example 127] | 168 nM
CC(C)C(=O)Nc1cccc(C2CCN(CCC(O)c3ccc(Br)cc3)CC2)c1 (stereo not shown) [Example 129] | 38.8 nM
Cc1ccccc1OC(CCN1CCC(c2cccc(NC(=O)C(C)C)c2)CC1)c1ccc(Br)cc1 (stereo not shown) [Example 133] | 14.1 nM
CC(C)C(=O)Nc1cccc(C2CCN(CCC(Oc3ccc(Br)cc3)c3ccc(F)cc3)CC2)c1 (stereo not shown) [Example 135] | 10.9 nM

Structure (SMILES) | Ki
CC(C)C(=O)Nc1cccc(C2CCN(CCC(Oc3ccc(C(F)(F)F)cc3)c3ccc(F)cc3)CC2)c1 (stereo not shown) [Example 137] | 25.2 nM
CC(C)C(=O)Nc1cccc(C2CCN(CCC(Oc3cccc(Br)c3)c3ccc(F)cc3)CC2)c1 (stereo not shown) [Example 138] | 9.3 nM
CC(C)C(=O)Nc1cccc(C2CCN(CCC(Oc3cc(F)ccc3F)c3ccc(F)cc3)CC2)c1 (stereo not shown) [Example 142] | 18.3 nM
CC(C)C(=O)Nc1cccc(C2CCN(CCC(Oc3cccc(Cl)c3)c3ccc(F)cc3)CC2)c1 (stereo not shown) [Example 143] | 8.7 nM
Cc1cccc(OC(CCN2CCC(c3cccc(NC(=O)C(C)C)c3)CC2)c2ccc(Br)cc2)c1 (stereo not shown) [Example 144] | 13.4 nM
CC(C)C(=O)Nc1cccc(C2CCN(CCC(Oc3ccc(F)cc3F)c3ccc(F)cc3)CC2)c1 (stereo not shown) [Example 146] | 19.2 nM
COc1cccc(OC(CCN2CCC(c3cccc(NC(=O)C(C)C)c3)CC2)c2ccc(Br)cc2)c1 (stereo not shown) [Example 147] | 8.7 nM
Cc1ccc(OC(CCN2CCC(c3cccc(NC(=O)C(C)C)c3)CC2)c2ccc(Br)cc2)c(Cl)c1 (stereo not shown) [Example 150] | 8 nM
CC(C)C(=O)Nc1cccc(C2CCN(CCC(Oc3ccccc3)c3ccc(Br)cc3)CC2)c1 (stereo not shown) [Example 151] | 14.2 nM
CC(=O)c1ccccc1OC(CCN1CCC(c2cccc(NC(=O)C(C)C)c2)CC1)c1ccc(Br)cc1 (stereo not shown) [Example 153] | 8.1 nM
CC(=O)c1ccccc1OC(CCN1CCC(c2cccc(NC(=O)C(C)C)c2)CC1)c1ccc2c(c1)CCC2 (stereo not shown) [Example 157, N-(3-{1-[3-(2- ACETYLPHENOXY)-3-(2,3-DIHYDRO-1H-INDEN-5-YL)PROPYL]-4-PIPERIDINYL}PHENYL)-2-METHYLPROPANAMIDE] | 15.4 nM
CC(C)C(=O)Nc1cccc(C2CCN(CCC(Oc3ccc(Br)cc3)c3ccc(Br)cc3)CC2)c1 (stereo not shown) [Example 158] | 7.8 nM
CC(C)C(=O)Nc1cccc(C2CCN(CCC(Oc3ccc(Cl)cc3)c3ccc(Br)cc3)CC2)c1 (stereo not shown) [Example 159] | 4.5 nM
CC(C)C(=O)Nc1cccc(C2CCN(CCC(Oc3ccc(F)cc3)c3ccc(Br)cc3)CC2)c1 (stereo not shown) [Example 160] | 6.2 nM
CC(C)C(=O)Nc1cccc(C2CCN(CCC(Oc3ccc(F)cc3)c3ccc4c(c3)CCC4)CC2)c1 (stereo not shown) [Example 162] | 7.2 nM
CC(=O)c1cccc(OC(CCN2CCC(c3cccc(NC(=O)C(C)C)c3)CC2)c2ccc(Cl)cc2)c1 (stereo not shown) [Example 166] | 7.7 nM
CC(C)C(=O)Nc1cccc(C2CCN(CCC(Oc3ccc(Cl)cc3)c3ccc4c(c3)CCC4)CC2)c1 (stereo not shown) [Example 168] | 7 nM

Continued by falling Ki, values first:

Ki | Structure (SMILES)
450 nM | CC(C)C(=O)Nc1cccc(C2CCN(CCC(=O)c3ccc(F)cc3)CC2)c1 [Example 123]
329 nM | COc1ccc(C(O)CCN2CCC(c3cccc(NC(=O)C(C)C)c3)CC2)cc1 (stereo not shown) [Example 128, N-(3-{1-[3-HYDROXY-3-(4- METHOXYPHENYL)PROPYL]-4-PIPERIDINYL}PHENYL)-2-METHYLPROPANAMIDE]
197 nM | CC(C)C(=O)Nc1cccc(C2CCN(CCC(Oc3ccc(-c4ccccc4)cc3)c3ccc(Br)cc3)CC2)c1 (stereo not shown) [Example 145]
149 nM | CC(C)C(=O)Nc1cccc(C2CCN(CCC(Oc3ccc(Oc4ccccc4)cc3)c3ccc(Br)cc3)CC2)c1 (stereo not shown) [Example 149]
80.4 nM | COc1ccc(OC(CCN2CCC(c3cccc(NC(=O)C(C)C)c3)CC2)c2ccc(OC)cc2)cc1 (stereo not shown) [Example 167]
61 nM | CC(C)C(=O)Nc1cccc(C2CCN(CCC(Oc3c(Cl)cccc3Cl)c3ccc(F)cc3)CC2)c1 (stereo not shown) [Example 141]
58.3 nM | CC(C)C(=O)Nc1cccc(C2CCN(CCC(O)c3ccc4c(c3)CCC4)CC2)c1 (stereo not shown) [Example 163]
43.6 nM | CC(C)C(=O)Nc1cccc(C2CCN(CCC(=O)c3ccc(Cl)cc3)CC2)c1 [Example 118]
41.7 nM | CC(C)C(=O)Nc1cccc(C2CCN(CCC(Oc3c(F)c(F)c(F)c(F)c3F)c3ccc(F)cc3)CC2)c1 (stereo not shown) [Example 132]
38.7 nM | CC(C)C(=O)Nc1cccc(C2CCN(CCC(Oc3ccc(F)cc3)c3ccc(F)cc3)CC2)c1 (stereo not shown) [Example 139]
37.9 nM | CCn1c2ccccc2c2cc(CN3CCC(c4ccc(NC(=O)C(C)C)cc4)CC3)ccc21 [Example 98]
36.6 nM | CC(C)C(=O)Nc1cccc(C2CCN(CCC(Oc3ccc(F)c(F)c3)c3ccc(F)cc3)CC2)c1 (stereo not shown) [Example 134]
33 nM | CC(C)C(=O)Nc1cccc(C2CCN(CCC(O)c3ccc(Cl)cc3)CC2)c1 (stereo not shown) [Example 124]
27.5 nM | COc1ccc(-n2ccc3cc(CN4CCC(c5cccc(NC(=O)C(C)C)c5)CC4)ccc32)cc1 [Example 100]
27.4 nM | CC(C)C(=O)Nc1cccc(C2CCN(CCC(Oc3cccc(F)c3)c3ccc(F)cc3)CC2)c1 (stereo not shown) [Example 140]
24.7 nM | COC(=O)c1ccc(OC(CCN2CCC(c3cccc(NC(=O)C(C)C)c3)CC2)c2ccc(Br)cc2)cc1 (stereo not shown) [Example 148, METHYL 4-(1-(4-BROMOPHENYL)-3-{4-[3-(ISOBUTYRYLAMINO)PHENYL]-1-PIPERIDINYL}PROPOXY)BENZOATE]
16.3 nM | CC(C)C(=O)Nc1cccc(C2CCN(CCC(Oc3ccc(C(F)(F)F)cc3)c3ccc4c(c3)CCC4)CC2)c1 (stereo not shown) [Example 164]
15.9 nM | CC(C)C(=O)Nc1cccc(C2CCN(CCC(Oc3ccc(Cl)c(Cl)c3)c3ccc(F)cc3)CC2)c1 (stereo not shown) [Example 136]

Ki | Structure (SMILES)
13.8 nM | Cc1ccccc1OC(CCN1CCC(c2cccc(NC(=O)C(C)C)c2)CC1)c1ccc(Cl)cc1 (stereo not shown) [Example 126]
13.3 nM | CC(C)C(=O)Nc1cccc(C2CCN(CCC(Oc3ccc(C(F)(F)F)cc3)c3ccc(Br)cc3)CC2)c1 (stereo not shown) [Example 152]
11.9 nM | CC(C)C(=O)Nc1cccc(C2CCN(CCC(Oc3ccc(Cl)cc3)c3ccc(F)cc3)CC2)c1 (stereo not shown) [Example 131]
9.3 nM | CC(=O)c1cccc(OC(CCN2CCC(c3cccc(NC(=O)C(C)C)c3)CC2)c2ccc(Br)cc2)c1 (stereo not shown) [Example 154]
8.8 nM | CC(C)C(=O)Nc1cccc(C2CCN(CCC(Oc3ccccc3)c3ccc4c(c3)CCC4)CC2)c1 (stereo not shown) [Example 156]
8 nM | COc1ccc2[nH]c(-c3ccccc3)c(CCCCN3CCC(c4cccc(NC(=O)C(C)C)c4)CC3)c2c1 [Example 92]
7.9 nM | COc1ccc(OC(CCN2CCC(c3cccc(NC(=O)C(C)C)c3)CC2)c2ccc3c(c2)CCC3)cc1 (stereo not shown) [Example 161]
7.8 nM | CC(C)C(=O)Nc1cccc(C2CCN(Cc3ccc4c(ccn4-c4ccc(F)cc4)c3)CC2)c1 [Example 101]
7.7 nM | CC(=O)c1ccccc1OC(CCN1CCC(c2cccc(NC(=O)C(C)C)c2)CC1)c1ccc(Cl)cc1 (stereo not shown) [Example 169]
7.4 nM | CC(=O)c1cccc(OC(CCN2CCC(c3cccc(NC(=O)C(C)C)c3)CC2)c2ccc3c(c2)CCC3)c1 (stereo not shown) [Example 155]
6.2 nM | CC(C)C(=O)Nc1cccc(C2CCN(CCC(Oc3ccc(Br)cc3)c3ccc4c(c3)CCC4)CC2)c1 (stereo not shown) [Example 165, N-(3-{1-[3-(4- BROMOPHENOXY)-3-(2,3-DIHYDRO-1H-INDEN-5-YL)PROPYL]-4-PIPERIDINYL}PHENYL)-2-METHYLPROPANAMIDE]
6 nM | COc1ccc(OC(CCN2CCC(c3cccc(NC(=O)C(C)C)c3)CC2)c2ccc(Cl)cc2)cc1 (stereo not shown) [Example 130]
5.4 nM | COc1ccc2[nH]cc(CCCN3CCC(c4cccc(NC(=O)C(C)C)c4)CC3)c2c1 [Example 95]
5.4 nM | CC(C)C(=O)Nc1cccc(C2CCN(CCC(Oc3ccc(F)c(F)c3)c3ccc(Cl)cc3)CC2)c1 (stereo not shown) [Example 125]
4.6 nM | CC(C)C(=O)Nc1cccc(C2CCN(CCCCCN3C(=O)OCC3c3ccc(F)c(F)c3)CC2)c1 (stereo not shown) [Example 105]
4.2 nM | CC(C)C(=O)Nc1cccc(C2CCN(Cc3cn(-c4ccccc4)c4ccccc34)CC2)c1 [Example 93]
3 nM | COc1ccc(OC(CCN2CCC(c3cccc(NC(=O)C(C)C)c3)CC2)c2ccc(Br)cc2)cc1 (stereo not shown) [Example 170]
2.3 nM | CC(C)C(=O)Nc1cccc(C2CCN(CCC/C(=N\Nc3ccccn3)c3ccccc3)CC2)c1 [Example 94]
